# Laboratory results: patent US11207421B2, “Nanostructures comprising cobalt porphyrin-phospholipid conjugates and polyhistidine-tags” (The Research Foundation for The State University of New York, priority 2015, dated 2021)
# Where a SMILES comes first, the peptide text is derived from it. Where no end group is shown, it is not given here. The star is where a group is joined. 5FAM = O=C1OC2(c3ccc(O)cc3Oc3cc(O)ccc32)c2ccc(C(=O)*)cc21; Palmitoyl = CCCCCCCCCCCCCCCC(=O)*
# Key:
# [1] = tested on: murine RAW 264.7 macrophage cells; assay: DY-490-OspA uptake by macrophage cells; type: cell-based; conditions: 2 hr incubation
# Method: FIG. 24. Assessing epitope availability and stability of antigen-functionalized nanoliposomes. (A) Stability of nanoliposome-antigen particles in 20% (v/v) human serum based on fluorescence quenching assay. (B) Immunoprecipitation of OspA-bound liposomes by OspA-specific monoclonal antibody LA-2. (C) DY-490-OspA uptake by murine RAW 264.7 macrophage cells following 2 hr incubation with indicated samples. Cytochalasin B was supplemented to medium 1 hr prior to incubation. Error bars represent standard deviations for n=3 experiments.
# Practical utility of liposomes as antigen delivery vesicles is attributed from its enhanced uptake by antigen presenting cells. […] The macrophage selective uptake of PoP/PHAD liposomes in the mixed form further implicates that physical association of antigen to liposomes may be necessary for liposomal adjuvanticity. Co-delivery of surface-exposed antigen and immunostimulant to immune cells is an important facet of the CoPoP/PHAD liposome. Cellular uptake mechanism via phagocytosis is supported by the diminished uptake for both antigen and liposome in the presence of cytochalasin B.
# U87 cells [2] = assay: Uptake of CoPoP liposomes bound to his-tagged cell penetrating peptides; type: cell-based; conditions: 1 hour incubation; [2:5:30:63] [PoP:CoP:CHOL:DMPC]
# Text: In this example, CoPoP liposomes were targeted to cells via his-tagged cell penetrating peptides. The following his-tagged cell penetrating peptides were obtained: […] (SEQ ID NO:13) (TAT peptide); […] (SEQ ID NO:14) (R8 peptide); […] (SEQ ID NO:15) (PEN peptide).
# CoPoP liposomes = assay: Effect of His-tag length on peptide binding to CoPoP liposomes; conditions: FAM-labeled peptides with varying His-tag length
# Method: 1 μg of fluorescent reporter protein was incubated with 20 μg of liposomes in 200 μL PBS in a 96 well plate. Fluorescence in the FRET channel (ex: 430 nm, em: 525 nm) was measured periodically with a fluorescence microplate reader (Tecan Infinite II). Data were normalized to the FRET signal in the protein without addition of liposomes. EMSA experiments were performed with 2.5 μg protein incubated with 50 μg liposomes followed by electrophoresis in a 0.75% agarose gel with 50 V applied for 90 minutes and imaging with an IVIS Lumina II system with the indicated excitation and emission filters. For serum stability test, […] in 40u l PBS. After […], 40u l FBS was added and incubated for another 8 h (hours). For imidazole displacement experiments, 1 μg of reporter protein was bound to 20 μg liposomes in PBS. Imidazole was then titrated and binding was assessed with fluorescence. For serum stability, 1 μg of reporter protein was bound to 20 μg liposomes in 100 μL PBS and then an equal volume of fetal bovine serum (VWR #82013-602) was added and binding was monitored with fluorescence. Peptide binding was assessed with RGD-His FAM fluorophore quenching following incubation of 500 ng peptide with 20 μg liposomes.
# The effect of His-tag length on peptide binding to CoPoP liposome was examined. A series of N-terminus FAM-labeled peptides was synthesized with varying lengths of His-tag attached to the C-terminus.
# [3] = type: physicochemical; conditions: not told
# Method: PoP-liposomes were formulated at a 1 mg scale. After dissolving lipids in chloroform in a test tube, the solvent was evaporated and the film was further dried under vacuum overnight. Lipids were rehydrated with 1 mL of phosphate buffered saline (PBS), sonicated, subjected to 10 freeze-thaw cycles and then extruded through 100 nm polycarbonate membranes (VWR #28157-790) with a handheld extruder (Avanti #610000). For protein and peptide binding analysis, liposomes were formed with 10 mol % PoP along with 85 mol % DOPC (Avanti #850375P), and 5 mol % PEG-lipid (Avanti #880120P). […] Liposomes incorporating free Co-porphyrin included 10 molar % Co-pyropheophorbide with 85 mol % DOPC and 5 mol % PEG-lipid. Co-NTA-liposome was prepared using liposomes containing 10 mol % dioleoyl-gycero-NTA (Avanti #790528P). Liposomes were incubated with 20 mg/mL cobalt (II) chloride for 2 hours and then dialized in PBS. Sulforhodamine B loading liposomes contained 10 mol % PoP, 35 mol % cholesterol (Avanti #700000P), 55 mol % DOPC and PEG-lipid as indicated. […] For bilayer integrity and quantitative cell binding studies, 50 mM dye was used, whereas microscopy studies used 10 mM dye.
# Given the binding efficacy of the His-tagged peptide to liposomes, bilayer integrity was assessed to determine whether peptide binding induces membrane destabilization. […]
# U87 glioblastoma cells = assay: Targeted uptake of sulforhodamine B-loaded liposomes; type: cell-based; conditions: excess free RGD peptide
# Method: U-87 and MCF-7 cell lines were obtained from ATCC and cultured according to vendor protocol. 2×10^4 cells were seeded overnight in 96-well-plate wells. 500 ng RGD-His peptide was bound with 20 μg of sulforhodamine B loaded liposomes and liposomes were incubated with cells for 2 h. Media was removed, cells were washed with PBS 3 times and then cells and liposomes were lysed with a 1% Triton X-100 solution. Liposomal uptake was assessed by measuring the fluorescence of sulforhodamine B.
# For confocal imaging, 10^4 cells were seeded overnight in a Nunc chamber slide (Nunc #155411) in DMEM with 10% fetal bovine serum (FBS). 20 μg of liposomes were added to the serum containing media and incubated for 2 h. Media was removed and the cells were washed with PBS 3 times. Fresh media was added and cells were imaged with microscopy using a Zeiss LSM 710 confocal fluorescence microscope. Gold imaging was carried out in the same way but 633 nm light was used for both excitation and emission for back scatter imaging. […]
# Next, RGD-decorated liposomes were assessed whether they could bind to their molecular targets with the established cell-line pair of U87 glioblastoma cells (RGD-binding) and MCF7 breast cancer cells (RGD non-binding). […] Liposomal uptake was assessed by examining the fluorescence in the cells following washing and lysis (to remove any effects of cargo self-quenching). […]
# U87 cells [4] = assay: Uptake of coated gold nanospheres (confocal reflectance/backscatter microscopy); type: cell-based; conditions: free RGD
# Method: For gold coating, 60 nm citrate-stabilized gold nanospheres (Ted Pella #15709-20) were used to hydrate a 1 mg lipid film composed of 45 mol % distearoyl phosphocholine (Avanti #850365P), 45 mol % distearoyl phosphoglycerol (Avanti #840465X) and 10 mol % PoP. Following brief vortexing and sonication, the samples were repeatedly centrifuged at 1500 relative centrifugal force (rcf) for 15 min. The supernatant was discarded and the pellet was resuspended and re-centrifuged 2 more times. PoP gold was resuspended in water for further analysis.
# For confocal imaging, 10^4 cells were seeded overnight in a Nunc chamber slide (Nunc #155411) in DMEM with 10% fetal bovine serum (FBS). 20 μg of liposomes were added to the serum containing media and incubated for 2 h. Media was removed and the cells were washed with PBS 3 times. Fresh media was added and cells were imaged with microscopy using a Zeiss LSM 710 confocal fluorescence microscope. Gold imaging was carried out in the same way but 633 nm light was used for both excitation and emission for back scatter imaging. After peptide binding, gold was centrifuged to remove any unbound RGD peptide.
# Liposomes represent only a subset of all the types of nanomaterials used in biomedical applications. CoPoP was assessed as a generalized surface coating with selective adhesion for His-tags. […]
# his-tagged OspA = target: T1, his-tagged OspA (Borreliella burgdorferi, UniProt P0CL66); assay: OspA binding to CoPoP/PHAD liposomes (native PAGE, microBCA); parameters: species or system Borrelia burgdorferi; conditions: microBCA assay of supernatant after high speed centrifugation
# T1 construct: made in house; host or cells: E. coli
# Method: FIG. 23. […] (D) Hydrodynamic diameter and polydispersity index of liposomes measured using dynamic light scattering. […] Acquisitions were made 3 hr after incubation of liposomes with protein. Error bars represent standard deviations for n=3 measurements.
# Spontaneous formation of the proteoliposomes occurs via insertion of the histidine tag into the hydrophobic bilayer and subsequent coordination of the imidazole moiety to the metal center. Binding conditions for were evaluated using native electrophoresis, which allows physical separation of liposome-bound and free proteins due to the limiting pore size of the acrylamide gel. Observed optimum binding mass ratio of 4:1 of PHAD:OspA (FIG. 23A) is consistent with previous studies using the malaria antigen, Pfs25. […] It can be deduced that the initial phase of binding occurred at a fast rate based from the relative band intensities for time points, 0 and 15 min. At the particleization conditions, specific binding is estimated to be about 80% based from microBCA assay of the supernatant obtained from high speed centrifugation (FIG. 23C).
# T1 sequence (P0CL66 17-273): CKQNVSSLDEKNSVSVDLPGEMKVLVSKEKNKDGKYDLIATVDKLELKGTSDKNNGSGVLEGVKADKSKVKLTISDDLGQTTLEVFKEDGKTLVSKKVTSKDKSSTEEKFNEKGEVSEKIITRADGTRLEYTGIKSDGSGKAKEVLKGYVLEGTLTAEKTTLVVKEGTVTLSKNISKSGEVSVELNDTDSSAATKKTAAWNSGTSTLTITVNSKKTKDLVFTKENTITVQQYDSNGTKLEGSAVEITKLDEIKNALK
compound,measurement,setting,value
"OspA: his-tagged OspA based on the B31 strain protein sequence without the lipid tail, free non-adjuvanted",antigen uptake,[1],Minimal uptake
HHHHHHHRQIKIWFQNRRMKWKK (SEQ ID NO:15) (cell penetrating peptide) [PEN peptide],binding and uptake of peptide-bound CoPoP liposomes,U87 cells [2],could bind and get uptaken
5-FAM-KKGGGGHHHHHHHHHH (SEQ ID NO: 10) (5FAM-KKGGGGHHHHHHHHHH) [10-His],binding t1/2,CoPoP liposomes,0.333 h
5-FAM-KKGGGGHH (SEQ ID NO: 6) (5FAM-KKGGGGHH) [2-His],binding t1/2,CoPoP liposomes,~10 h
CCCCCCCCCCCCCCCC(=O)NCCCC[C@H](NC(=O)CNC(=O)[C@H](CCCCN)NC(=O)[C@H](C)NC(=O)CNC(=O)[C@H](C)NC(=O)CNC(=O)[C@H](CCCCN)NC(=O)[C@@H]1CCCN1C(=O)[C@H](CO)NC(=O)[C@H](CC(=O)O)NC(=O)CNC(=O)[C@H](CCCNC(=N)N)NC(=O)CNC(=O)c1ccc2c(c1)C(=O)OC21c2ccc(O)cc2Oc2cc(O)ccc21)C(=O)O [RGD-palm] (5FAM-GRGDSPKGAGAKGK(Palmitoyl)-OH; C-terminus assumed),membrane permeabilization by lipopeptide,[3],permeabilization of cargo-loaded liposomes
GRGDSPK (SEQ ID NO: 2) [Free RGD],inhibition of targeted liposome binding,U87 glioblastoma cells,Binding could be inhibited
same,inhibition of gold nanoparticle binding,U87 cells [4],inhibited the binding
5-FAM-KKGGGGHHHHHH (SEQ ID NO: 8) (5FAM-KKGGGGHHHHHH) [6-His],binding t1/2,CoPoP liposomes,less than one hour
lysozyme: a non-histidine tagged protein,specific binding,his-tagged OspA,failed to bind
HHHHHHHRRRRRRRR (SEQ ID NO:14) (cell penetrating peptide) [R8 peptide],binding and uptake of peptide-bound CoPoP liposomes,U87 cells [2],could bind and get uptaken
5-FAM-KKGGGG (SEQ ID NO: 5) (5FAM-KKGGGG) [0-His],binding t1/2,CoPoP liposomes,no peptide binding was observed
HHHHHHHGRKKRRQRRRPPQ (SEQ ID NO:13) (cell penetrating peptide) [TAT peptide],binding and uptake of peptide-bound CoPoP liposomes,U87 cells [2],could bind and get uptaken
